Data set [1] in a line: Changes in animal body weight during chronic caffeine treatment (AUC of weight change). Format: in vivo, mouse. The conditions noted are these: for Area under the curve (AUC) of change in body weight: caffeine 0.3mg/ml in drinking water from 11th to 16-18th week of age, weight change vs first day of administration (PND 72), mean ± SEM; for Weight gain compared to vehicle treatment: caffeine 0.3mg/ml in drinking water. Here is the method: (§1) During the experimental period, animals had ad libitum access to water, independently of treatment group. […] After 5–7 weeks of treatment, mice were sacrificed, cortex and spinal cord samples were removed and snap frozen in liquid nitrogen. All samples were kept at -80°C for posterior analysis.
Animal body weight was monitored throughout the chronic drug administration experiments, with animals being weighed once every 2 to 3 days. We used weight changes a proxy of the disease state, as it was described that SOD1^G93A mice show a gradual loss of weight through time, and that these correlate with other disease states indicators. We decided not to use behavioral data (eg RotaRod performance) to avoid changes in protein levels or expression due to physical exercise, which would have even more impact in SOD1^G93A mice than in WT, thus introducing an additional variable and therefore making comparisons more difficult.
Because SOD1^G93A tend to generally weight less than their WT counterparts, group comparisons of absolute weight were deemed inadequate. As such, changes in the body weight of each animal were calculated by subtracting the weight of that animal on the first day of drug administration (72nd day of life) to its weight at each subsequent time-point, with results being expressed in grams. To facilitate comparison of treatment effects, the area under the curve (AUC) of these changes in weight was obtained.

Another data set deals with VEGFA. The data set can be described thus: VEGFA protein levels by ELISA after chronic caffeine treatment. Format: in vivo, mouse. The conditions noted are these: for VEGFA protein levels: caffeine 0.3mg/ml in drinking water from 11 weeks, mean ± SEM. As for the experimental part: (§2) Cortex and spinal cord samples were homogenized in […] (RIPA) lysis buffer (1M Tris pH 8.0, 0.5M EDTA pH 8.0, 5M NaCl, 10% NP-40, 50% Glycerol), supplemented with cOmpleteTM Mini protease inhibitor cocktail tablets (Roche, Penzberg, Germany) and centrifuged. Protein quantification was performed using the DC™ Protein Assay kit (Bio-Rad Laboratories, Hercules, CA, USA). VEGFA, VEGFR-1 and VEGFR-2 protein levels were quantified with the DuoSet® ELISA Development System Kit (R&D Systems, Abingdon, UK), according to manufacturer instructions. Assessment of VEGFB protein levels was performed with the Mouse VEGFB ELISA Kit (Thermo Scientific, Massachusetts, USA), also according to manufacturer instructions. […] To improve BDNF detection, samples were acidified with HCl 1M, until reaching approximately pH 2.6. After 10 to 20 minutes, NaOH was added to neutralize the samples to pH 7.6. Absorbances were read in a microplate reader (Microplate Reader TECAN Infinite M200, Männedorf, Switzerland) at 450nm and 540nm, with the latter being subtracted to the former with the goal of correcting for differences in plate background. Results are expressed as picograms per milligram of total protein (pg/mg).
as §1

A further data set concerns VEGFB. Nature of the data set: VEGFB protein levels by ELISA after chronic caffeine treatment. It counts as in vivo, mouse. The note with it: caffeine 0.3mg/ml in drinking water from 11 weeks, mean ± SEM. As for the experimental part:
as §2, §1

Another data set has as its system VEGFR-1. The data set can be described thus: VEGFR-1 protein levels by ELISA after chronic caffeine treatment. It counts as in vivo, mouse. The note with it: caffeine 0.3mg/ml in drinking water from 11 weeks, mean ± SEM. As for the experimental part: as §2, §1
In general terms: ELISA stands for enzyme-linked immunosorbent assay.

For another data set, the system named is VEGFR-2. The data set can be described thus: VEGFR-2 protein levels by ELISA after chronic caffeine treatment. It counts as in vivo, mouse. The conditions noted are these: caffeine 0.3mg/ml in drinking water from 11 weeks, mean ± SEM. As for the experimental part:
as §2
After 5–7 weeks of treatment, mice were sacrificed, cortex and spinal cord samples were removed and snap frozen in liquid nitrogen. All samples were kept at -80°C for posterior analysis.

The subject of the next data set is BDNF. The data set can be described thus: BDNF protein levels by ELISA after chronic caffeine treatment. Format: in vivo, mouse. The note with it: caffeine 0.3mg/ml in drinking water from 11 weeks, mean ± SEM. Here is the method:
as §2, §1

Data set [2] in a line: Water intake during chronic caffeine treatment. The conditions noted are these: WT and SOD1^G93A mice; tap water or caffeine (0.3mg/ml); approximately 5–6 mL per day per mouse. Format: in vivo. As for the experimental part:
as §1

The subject of data set [3] is SOD1^G93A mice. The note with it: caffeine 0.3mg/ml in drinking water from 11th week of age.
In data set [4] the test system is SOD1^G93A mice. The conditions noted are these: cited from earlier work.
The target in a further data set is T1, A1R (Mus musculus, UniProt Q60612).
T1 construct: To obtain the P1 fraction, cerebral cortex and spinal cord were homogenized in chilled sucrose; from tissue; host or cells: cerebral cortex and spinal cord membranes (P1 fraction) of SOD1-G93A transgenic and WT B6SJL mice
T1 sequence (Q60612 1-326): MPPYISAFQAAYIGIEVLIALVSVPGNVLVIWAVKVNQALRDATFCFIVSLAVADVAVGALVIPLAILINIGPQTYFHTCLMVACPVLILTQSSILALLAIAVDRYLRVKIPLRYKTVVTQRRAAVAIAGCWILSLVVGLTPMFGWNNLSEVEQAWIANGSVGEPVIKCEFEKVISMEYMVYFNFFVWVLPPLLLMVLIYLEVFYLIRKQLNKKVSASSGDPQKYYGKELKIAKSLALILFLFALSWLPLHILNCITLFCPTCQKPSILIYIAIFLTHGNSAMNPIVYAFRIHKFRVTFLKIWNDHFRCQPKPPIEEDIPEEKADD
Format: binding. The note with it: mean ± SEM, read-out: DPCPX equilibrium dissociation constant (KD). As for the experimental part:
The radioligand-binding experiments were performed as previously described with membrane fractions (total membranes, P1 fraction). To obtain the P1 fraction, cerebral cortex and spinal cord were homogenized in chilled sucrose (pH 7.6), centrifuged at 3000 g, the pellet discarded, and the supernatant centrifuged at 14000 g (P1 fraction). The P1 fraction was then resuspended in sucrose (pH 7.6). Protein quantification was done with DC™ Protein Assay kit (Bio-Rad Laboratories, CA, USA), with bovine serum albumin (BSA) as the reference standard. […] Non-specific binding was measured in the presence of 2 μM of Xanthine Amine Congener (XAC, Tocris Bioscience, Bristol, United Kingdom), and the resulting values were subtracted from those obtained with [^3H]DPCPX to determine the specific binding and normalized for protein concentration. Results are expressed as femtomole per mg of total protein (fmol/mg).

Where two headings read alike, the source gives them in different places.

With `Cn1c(=O)c2c(ncn2C)n(C)c1=O` [caffeine], the “Area under the curve (AUC) of change in body weight” value is recorded as 22.70 ±3.795 in data set [1] (SOD1^G93A mice, SOD-VEH 12.90 ± 3.033) and 83.40 ± 4.743 in data set [1] (WT mice, WT-VEH 71.20 ± 2.011). Besides, the “Weight gain compared to vehicle treatment” value in [1] (SOD1^G93A mice, not statistically significant (p = 0.058)) is recorded as “trend towards an increase in weight gain”; in [1] (WT mice, p = 0.039) it was “small but statistically significant increase in weight gain”. In addition, the “Effect of caffeine upon VEGFA protein levels” value with VEGFA (cortex, WT and SOD1^G93A mice 16–18 weeks old, caffeine 0.3mg/ml in drinking water) is listed as “absence of effect”. Further, the VEGFA protein levels with VEGFA (cortex, WT mice 16–18 weeks old, WT-VEH 3.62) is given as 2.05 ± 0.324 pg/mg protein; in the data set with VEGFA (spinal cord, SOD1^G93A mice 16–18 weeks old, SOD-VEH 4.151 ± 0.820) it was 3.743 ± 1.018 pg/mg protein; in the data set on VEGFA (spinal cord, WT mice 16–18 weeks old, WT-VEH 2.798), 3.774 ± 0.451 pg/mg protein. Besides, the VEGFB protein levels in the data set with VEGFB (cortex, SOD1^G93A mice 16–18 weeks old, SOD-VEH 164.7 ± 10.79) amounted to 157.8 ± 13.94 pg/mg protein; with VEGFB (cortex, WT mice 16–18 weeks old, WT-VEH 166.8 ± 20.91) it was 170.7 ± 33.07 pg/mg protein; in the data set on VEGFB (spinal cord, SOD1^G93A mice 16–18 weeks old, SOD-VEH 545.6 ± 35.13), 545.3 ± 55.72 pg/mg protein; with VEGFB (spinal cord, WT mice 16–18 weeks old, WT-VEH 366.0 ± 64.68), 366.5 ± 90.97 pg/mg protein. Also, the VEGFR-1 protein levels in the data set with VEGFR-1 (cortex, SOD1^G93A mice 16–18 weeks old, SOD-VEH 905.1 ± 30.64) came out at 926.5 ± 89.92 pg/mg protein; in the data set on VEGFR-1 (cortex, WT mice 16–18 weeks old, WT-VEH 1078 ± 90.79) it was 1004 ± 146.9 pg/mg protein; in the data set with VEGFR-1 (spinal cord, SOD1^G93A mice 16–18 weeks old, SOD-VEH 919.3 ± 50.34), 1048 ± 115.2 pg/mg protein. Further, the VEGFR-2 protein levels is recorded as 50.51 ± 6.925 pg/mg protein in the data set on VEGFR-2 (cortex, SOD1^G93A mice 16–18 weeks old, SOD-VEH 45.41 ± 5.938); 39.02 ± 4.077 pg/mg protein in the data set with VEGFR-2 (cortex, WT mice 16–18 weeks old, WT-VEH 45.14 ± 4.019); 121 ± 40.6 pg/mg protein in the data set with VEGFR-2 (spinal cord, WT mice 16–18 weeks old, WT-VEH 108 ± 32.5). The BDNF protein levels was 13.85 ± 2.372 pg/mg protein with BDNF (cortex, SOD1^G93A mice 16–18 weeks old, SOD-VEH 29.75 ± 4.560, p = 0.042); 40.24 ± 6.342 pg/mg protein in the data set on BDNF (cortex, WT mice 16–18 weeks old, WT vehicle 20.96 ± 1.403, p = 0.020); 49.10 ± 10.82 pg/mg protein with BDNF (spinal cord, SOD1^G93A mice 16–18 weeks old, SOD-VEH 19.34, p = 0.038, high variability); 14.37 ± 4.488 pg/mg protein with BDNF (spinal cord, WT mice 16–18 weeks old). Moreover, the “Water intake, difference between treatment groups” value in data set [2] is on record as “No substantial differences”. Moreover, the “Symptoms on visual inspection” value in the data set on SOD1^G93A mice [3] was “trend to symptoms aggravation”. In the data set on SOD1^G93A mice [3], the “Time to humane endpoint (onset of hindlimb paresis) vs vehicle treated SOD1^G93A mice” value was “slightly earlier”. Also, in the data set with SOD1^G93A mice [4], the “Effect on ALS symptoms” value is listed as “exacerbates ALS symptoms”.

Turning to `CCCn1c(=O)c2[nH]c(C3CCCC3)nc2n(CCC)c1=O` [DPCPX, [^3H]-8-Cyclopentyl-1,3-dipropylxanyine], the Kd on A1R (cortex, WT mice age-matched to pre-symptomatic (4–6 weeks old)) was found to be 3.1 ± 1.55 nM; at A1R (cortex, WT mice age-matched to symptomatic (12–14 weeks old)), 7.98 ± 1.01 nM; on A1R (cortex, pre-symptomatic SOD1^G93A mice (4–6 weeks old)), 4.97 ± 1.07 nM; on A1R (cortex, symptomatic SOD1^G93A mice (12–14 weeks old)), 4.43 ± 0.821 nM; at A1R (spinal cord, WT mice age-matched to pre-symptomatic (4–6 weeks old)), 15 ± 3.83 nM; on A1R (spinal cord, WT mice age-matched to symptomatic (12–14 weeks old)) it was 4.32 ± 0.924 nM. Further, the Kd came out at 12 ± 4.55 nM on A1R (spinal cord, pre-symptomatic SOD1^G93A mice (4–6 weeks old)) and 11.1 ± 3.47 nM on A1R (spinal cord, symptomatic SOD1^G93A mice (12–14 weeks old)).

By Kd is commonly meant a measure of binding affinity in units of concentration.

These data come from publication PMC9749988 (PLOS ONE, 2022).
